Active and inactive are the calls of the source. No cut-off for these calls is given here. Residues, ends and D or L forms follow the SMILES beside them.
Experiments:
[1] = tested on: Plasma; test: Anticoagulant activity in human citreated plasma assessed as prolongation of fibrinogen clotting time; assay type: functional, cell-free
[2] = species: Homo sapiens; test: Inhibition of amidolytic activity of human alpha-thrombin after 60 mins by RP-HPLC
[3] = species: Homo sapiens; test: Inhibition of amidolytic activity of human alpha-thrombin upto 24 hrs by RP-HPLC
[4] = target: Vitamin K-dependent protein C (Homo sapiens) (UniProt P04070); test: Inhibition of human Activated protein C at 1 uM
Sequence of Vitamin K-dependent protein C (Homo sapiens) (P04070 43-197 limits assumed): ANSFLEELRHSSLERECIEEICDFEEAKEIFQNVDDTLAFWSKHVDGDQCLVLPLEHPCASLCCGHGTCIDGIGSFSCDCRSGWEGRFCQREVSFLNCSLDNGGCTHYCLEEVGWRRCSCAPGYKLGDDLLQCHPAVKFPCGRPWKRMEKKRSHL
Sequence of Vitamin K-dependent protein C (Homo sapiens) (P04070 212-461 limits assumed): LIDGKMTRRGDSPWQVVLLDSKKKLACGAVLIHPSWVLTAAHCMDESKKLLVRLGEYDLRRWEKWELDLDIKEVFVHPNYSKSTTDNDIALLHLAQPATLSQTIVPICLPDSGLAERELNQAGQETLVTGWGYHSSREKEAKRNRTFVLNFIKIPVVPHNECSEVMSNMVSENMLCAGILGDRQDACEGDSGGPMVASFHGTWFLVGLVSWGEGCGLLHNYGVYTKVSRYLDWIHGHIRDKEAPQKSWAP

[5] = target: T1, Trypsin (Homo sapiens) (UniProt P07477+P07478+P35030); test: Inhibition of human trypsin at 1 uM; assay type: protein assay
[6] = target: Urokinase-type plasminogen activator (Homo sapiens) (UniProt P00749); test: Inhibition of human urokinase at 1 uM
[7] = species: Homo sapiens; test: Inhibition of human chymotrypsin at 1 uM
[8] = target: T2, Coagulation factor VII (Homo sapiens) (UniProt P08709); test: Inhibition of human factor 7a at 1 uM
T2 sequence (whole entry): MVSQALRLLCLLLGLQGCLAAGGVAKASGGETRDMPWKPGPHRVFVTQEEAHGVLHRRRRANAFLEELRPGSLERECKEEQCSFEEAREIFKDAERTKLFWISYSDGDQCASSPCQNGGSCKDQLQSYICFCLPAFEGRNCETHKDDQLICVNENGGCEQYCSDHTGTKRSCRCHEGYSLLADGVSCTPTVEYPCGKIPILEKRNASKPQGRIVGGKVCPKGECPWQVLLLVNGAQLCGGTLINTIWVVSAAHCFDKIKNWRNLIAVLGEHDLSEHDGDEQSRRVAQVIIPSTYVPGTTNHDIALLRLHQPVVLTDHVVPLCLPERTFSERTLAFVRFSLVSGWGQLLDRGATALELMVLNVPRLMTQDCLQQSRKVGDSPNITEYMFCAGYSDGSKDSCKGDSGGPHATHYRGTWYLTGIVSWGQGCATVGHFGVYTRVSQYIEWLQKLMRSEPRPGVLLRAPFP

[9] = target: Plasminogen (Homo sapiens) (UniProt P00747); test: Inhibition of human plasmin at 1 uM
Sequence of Plasminogen (Homo sapiens) (P00747 97-580 limits assumed): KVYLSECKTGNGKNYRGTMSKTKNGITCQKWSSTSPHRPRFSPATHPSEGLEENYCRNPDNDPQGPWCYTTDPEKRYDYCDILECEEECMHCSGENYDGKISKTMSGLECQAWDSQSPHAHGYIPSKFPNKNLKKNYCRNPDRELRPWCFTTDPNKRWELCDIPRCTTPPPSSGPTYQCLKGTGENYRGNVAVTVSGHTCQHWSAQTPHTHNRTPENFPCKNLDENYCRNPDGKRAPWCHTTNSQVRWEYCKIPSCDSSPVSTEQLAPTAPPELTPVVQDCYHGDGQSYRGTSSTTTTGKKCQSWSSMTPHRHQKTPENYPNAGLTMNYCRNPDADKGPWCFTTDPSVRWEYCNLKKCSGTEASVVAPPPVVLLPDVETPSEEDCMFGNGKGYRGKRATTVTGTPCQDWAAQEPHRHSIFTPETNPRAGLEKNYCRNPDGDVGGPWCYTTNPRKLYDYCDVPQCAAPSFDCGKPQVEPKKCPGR
Sequence of Plasminogen (Homo sapiens) (P00747 581-810 limits assumed): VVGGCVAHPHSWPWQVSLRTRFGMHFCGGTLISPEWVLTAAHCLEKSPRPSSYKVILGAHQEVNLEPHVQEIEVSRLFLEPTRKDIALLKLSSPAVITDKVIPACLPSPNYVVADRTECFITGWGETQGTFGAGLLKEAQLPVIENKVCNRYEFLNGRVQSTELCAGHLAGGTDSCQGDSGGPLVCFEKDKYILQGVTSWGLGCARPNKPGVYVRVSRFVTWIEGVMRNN

[10] = species: Homo sapiens; test: Inhibition of human alpha-thrombin at 1 uM
[11] = target: T3, Coagulation factor XII (Homo sapiens) (UniProt P00748); test: Inhibition of human factor 12a at 1 uM
T3 sequence (whole entry): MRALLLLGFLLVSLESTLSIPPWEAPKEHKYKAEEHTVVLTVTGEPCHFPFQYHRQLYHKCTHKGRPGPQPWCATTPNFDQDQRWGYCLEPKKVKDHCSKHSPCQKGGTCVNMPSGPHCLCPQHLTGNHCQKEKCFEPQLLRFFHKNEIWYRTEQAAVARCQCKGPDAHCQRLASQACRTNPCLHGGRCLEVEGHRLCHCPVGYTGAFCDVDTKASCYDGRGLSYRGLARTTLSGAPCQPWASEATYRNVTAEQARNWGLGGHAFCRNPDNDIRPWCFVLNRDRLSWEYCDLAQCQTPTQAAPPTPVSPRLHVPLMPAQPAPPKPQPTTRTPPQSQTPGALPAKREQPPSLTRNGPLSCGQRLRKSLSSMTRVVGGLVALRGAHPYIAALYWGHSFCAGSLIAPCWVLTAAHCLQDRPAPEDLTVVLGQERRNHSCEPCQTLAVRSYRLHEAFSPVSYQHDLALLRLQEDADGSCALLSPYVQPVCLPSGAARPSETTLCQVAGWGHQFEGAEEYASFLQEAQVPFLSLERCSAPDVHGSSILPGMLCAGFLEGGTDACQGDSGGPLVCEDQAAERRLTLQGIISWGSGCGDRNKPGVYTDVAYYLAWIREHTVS

[12] = target: Plasma kallikrein (Homo sapiens) (UniProt P03952); test: Inhibition of human kallikrein at 1 uM
Sequence of Plasma kallikrein (Homo sapiens) (P03952 20-390 limits assumed): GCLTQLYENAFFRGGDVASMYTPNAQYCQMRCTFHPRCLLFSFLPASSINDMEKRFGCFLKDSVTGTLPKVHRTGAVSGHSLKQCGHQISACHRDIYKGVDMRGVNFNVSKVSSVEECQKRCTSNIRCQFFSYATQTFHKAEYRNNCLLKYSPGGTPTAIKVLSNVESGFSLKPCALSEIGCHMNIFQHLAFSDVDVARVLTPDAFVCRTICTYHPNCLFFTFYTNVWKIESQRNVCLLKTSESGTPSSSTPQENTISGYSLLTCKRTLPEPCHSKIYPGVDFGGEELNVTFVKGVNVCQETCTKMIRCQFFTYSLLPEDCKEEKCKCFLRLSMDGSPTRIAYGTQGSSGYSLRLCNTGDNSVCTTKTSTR
Sequence of Plasma kallikrein (Homo sapiens) (P03952 391-638 limits assumed): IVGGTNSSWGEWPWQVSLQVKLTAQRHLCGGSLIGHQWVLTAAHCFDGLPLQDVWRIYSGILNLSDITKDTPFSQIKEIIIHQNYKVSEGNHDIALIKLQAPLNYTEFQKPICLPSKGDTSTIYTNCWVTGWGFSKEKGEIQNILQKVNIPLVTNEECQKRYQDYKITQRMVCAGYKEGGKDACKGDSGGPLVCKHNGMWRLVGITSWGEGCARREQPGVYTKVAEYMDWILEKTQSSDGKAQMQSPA

[13] = target: Plasminogen (Homo sapiens) (UniProt P00747); test: Inhibition of human plasmin at 100 uM
[14] = target: Coagulation factor XI (Homo sapiens) (UniProt P03951); test: Inhibition of human factor 11a at 100 uM
Sequence of Coagulation factor XI (Homo sapiens) (P03951 19-387 limits assumed): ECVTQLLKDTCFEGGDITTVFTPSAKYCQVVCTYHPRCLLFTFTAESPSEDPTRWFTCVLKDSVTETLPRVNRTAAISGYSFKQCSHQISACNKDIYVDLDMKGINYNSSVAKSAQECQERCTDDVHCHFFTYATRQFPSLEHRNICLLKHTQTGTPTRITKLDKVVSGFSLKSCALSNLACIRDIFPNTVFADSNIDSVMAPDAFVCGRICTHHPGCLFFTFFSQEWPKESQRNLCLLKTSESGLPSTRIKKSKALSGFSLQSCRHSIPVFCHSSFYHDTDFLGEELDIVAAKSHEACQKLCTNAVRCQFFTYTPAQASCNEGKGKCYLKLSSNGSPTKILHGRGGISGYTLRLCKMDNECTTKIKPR
Sequence of Coagulation factor XI (Homo sapiens) (P03951 388-625 limits assumed): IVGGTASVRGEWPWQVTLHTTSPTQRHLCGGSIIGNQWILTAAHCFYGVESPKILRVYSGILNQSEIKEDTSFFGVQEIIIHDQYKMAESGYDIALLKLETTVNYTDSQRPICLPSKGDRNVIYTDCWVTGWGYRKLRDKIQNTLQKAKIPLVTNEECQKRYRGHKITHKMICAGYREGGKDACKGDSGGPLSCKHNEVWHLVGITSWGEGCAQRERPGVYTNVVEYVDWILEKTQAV

[15] = target: Coagulation factor IX (Homo sapiens) (UniProt P00740); test: Inhibition of human factor 9a at 1 uM
Sequence of Coagulation factor IX (Homo sapiens) (P00740 47-191 limits assumed): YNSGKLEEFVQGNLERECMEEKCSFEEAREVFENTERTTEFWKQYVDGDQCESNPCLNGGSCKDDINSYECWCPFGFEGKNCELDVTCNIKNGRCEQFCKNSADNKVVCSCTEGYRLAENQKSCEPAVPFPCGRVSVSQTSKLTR
Sequence of Coagulation factor IX (Homo sapiens) (P00740 227-461 limits assumed): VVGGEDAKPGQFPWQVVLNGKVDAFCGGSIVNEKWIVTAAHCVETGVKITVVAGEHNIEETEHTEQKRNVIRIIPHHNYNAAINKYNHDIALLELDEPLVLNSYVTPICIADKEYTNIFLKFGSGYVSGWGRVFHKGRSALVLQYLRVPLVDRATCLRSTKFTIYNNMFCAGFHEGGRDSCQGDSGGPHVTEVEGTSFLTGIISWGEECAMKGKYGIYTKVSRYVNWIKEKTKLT

[16] = target: Coagulation factor XI (Homo sapiens) (UniProt P03951); test: Inhibition of human factor 11a at 1 uM
[17] = target: Tissue-type plasminogen activator (Homo sapiens) (UniProt P00750); test: Inhibition of human tissue plasminogen activator at 1 uM
Sequence of Tissue-type plasminogen activator (Homo sapiens) (P00750 36-562 limits assumed): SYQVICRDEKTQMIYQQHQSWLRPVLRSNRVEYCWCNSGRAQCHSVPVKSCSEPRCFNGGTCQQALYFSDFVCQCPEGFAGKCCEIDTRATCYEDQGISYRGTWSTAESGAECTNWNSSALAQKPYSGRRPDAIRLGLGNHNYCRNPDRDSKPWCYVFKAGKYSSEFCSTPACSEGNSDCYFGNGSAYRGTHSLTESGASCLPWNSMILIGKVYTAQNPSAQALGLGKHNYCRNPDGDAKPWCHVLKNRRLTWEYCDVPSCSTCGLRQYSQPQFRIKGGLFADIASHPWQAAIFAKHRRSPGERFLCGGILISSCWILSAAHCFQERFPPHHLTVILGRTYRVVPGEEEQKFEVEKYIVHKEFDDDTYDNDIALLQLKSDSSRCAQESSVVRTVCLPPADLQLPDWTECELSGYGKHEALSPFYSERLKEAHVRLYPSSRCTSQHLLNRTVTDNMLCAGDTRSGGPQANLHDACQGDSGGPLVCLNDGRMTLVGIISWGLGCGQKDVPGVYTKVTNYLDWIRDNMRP

[18] = target: T1, Trypsin (Homo sapiens); test: Inhibition of human trypsin at 100 uM; assay type: protein assay
[19] = target: Coagulation factor X (Homo sapiens) (UniProt P00742); test: Inhibition of human factor 10a at 1 uM
Sequence of Coagulation factor X (Homo sapiens) (P00742 41-179 limits assumed): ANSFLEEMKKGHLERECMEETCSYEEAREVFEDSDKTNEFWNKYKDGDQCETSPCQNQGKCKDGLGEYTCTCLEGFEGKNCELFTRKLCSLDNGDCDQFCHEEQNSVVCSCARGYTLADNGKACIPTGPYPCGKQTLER
Sequence of Coagulation factor X (Homo sapiens) (P00742 235-488 limits assumed): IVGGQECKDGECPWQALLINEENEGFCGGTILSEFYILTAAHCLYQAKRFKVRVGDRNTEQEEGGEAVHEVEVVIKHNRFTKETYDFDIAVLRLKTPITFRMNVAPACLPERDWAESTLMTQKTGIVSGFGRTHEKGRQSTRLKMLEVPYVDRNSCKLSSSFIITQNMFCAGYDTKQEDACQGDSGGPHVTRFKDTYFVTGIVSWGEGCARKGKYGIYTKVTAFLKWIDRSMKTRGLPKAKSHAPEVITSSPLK

SMILES | Activity [1] | Activity [2] | Activity [3] | inhibition [4] | inhibition [5] | inhibition [6] | inhibition [7] | inhibition [8] | inhibition [9] | Activity [10] | inhibition [11] | inhibition [12] | inhibition [13] | inhibition [14] | inhibition [15] | inhibition [16] | inhibition [17] | inhibition [18] | inhibition [19]
CC[C@H](C)[C@H](NC(=O)[C@H](C)NC(=O)[C@H](CCC(=O)O)NC(=O)[C@H](Cc1ccccc1)NC(=O)[C@H](CC(=O)O)NC(=O)[C@H](Cc1ccccc1)NC(=O)[C@@H]1CCCN1C(=O)[C@@H]1CCCN1C(=O)[C@H](C)N)C(=O)N1CCC[C@H]1C(=O)N[C@@H](CCC(=O)O)C(=O)N[C@@H](CCC(=O)O)C(=O)N[C@@H](Cc1ccc(O)cc1)C(=O)N[C@@H](CC(C)C)C(=O)N[C@@H](CC(=O)O)C(=O)N[C@@H](CC(=O)O)C(=O)N[C@@H](CCC(=O)O)C(=O)N[C@@H](CO)C(=O)O (H-APPFDFEAIPEEYLDDES-OH) | Dose-dependent effect | – | – | – | – | – | – | – | – | – | – | – | – | – | – | – | – | – | –
CC[C@H](C)[C@H](NC(=O)[C@H](C)NC(=O)[C@H](CCC(=O)O)NC(=O)[C@H](Cc1ccccc1)NC(=O)[C@H](CC(=O)O)NC(=O)[C@H](Cc1ccccc1)NC(=O)[C@@H]1CCCN1C(=O)[C@@H]1CCCN1C(=O)[C@H](C)NC(=O)[C@@H](NC(=O)[C@H](CCCCN)NC(=O)[C@H](Cc1cnc[nH]1)NC(=O)[C@H](CCSC)NC(=O)[C@H](CCCCN)NC(=O)[C@@H]1CCCN1C(=O)[C@@H](N)CCC(=O)O)[C@@H](C)O)C(=O)N1CCC[C@H]1C(=O)N[C@@H](CCC(=O)O)C(=O)N[C@@H](CCC(=O)O)C(=O)N[C@@H](Cc1ccc(O)cc1)C(=O)N[C@@H](CC(C)C)C(=O)N[C@@H](CC(=O)O)C(=O)N[C@@H](CC(=O)O)C(=O)N[C@@H](CCC(=O)O)C(=O)N[C@@H](CO)C(=O)O | Dose-dependent effect | Active | inactive | – | – | – | – | – | – | – | – | – | – | – | – | – | – | – | –
CC[C@H](C)[C@H](NC(=O)[C@H](C)NC(=O)[C@H](CCC(=O)O)NC(=O)[C@H](Cc1ccccc1)NC(=O)[C@H](CC(=O)O)NC(=O)[C@H](Cc1ccccc1)NC(=O)[C@@H]1CCCN1C(=O)[C@@H]1CCCN1C(=O)[C@H](C)NC(=O)[C@@H](NC(=O)[C@H](CCCCN)NC(=O)[C@H](Cc1cnc[nH]1)NC(=O)[C@H](CCSC)NC(=O)[C@H](CCCCN)NC(=O)[C@@H]1CCCN1C(=O)[C@H](CCC(=O)O)NC(=O)[C@H](C)NC(=O)[C@@H](NC(=O)[C@H](CC(=O)O)NC(=O)CNC(=O)[C@H](CCC(N)=O)NC(=O)[C@H](CC(=O)O)NC(=O)[C@@H](N)CO)C(C)C)[C@@H](C)O)C(=O)N1CCC[C@H]1C(=O)N[C@@H](CCC(=O)O)C(=O)N[C@@H](CCC(=O)O)C(=O)N[C@@H](Cc1ccc(O)cc1)C(=O)N[C@@H](CC(C)C)C(=O)N[C@@H](CC(=O)O)C(=O)N[C@@H](CC(=O)O)C(=O)N[C@@H](CCC(=O)O)C(=O)N[C@@H](CO)C(=O)O | Dose-dependent effect | Active | inactive | < 5% | < 5% | < 5% | < 5% | < 5% | < 5% | Active | < 5% | < 5% | 20% | 20% | < 5% | < 5% | < 5% | 20% | < 5%

— ChEMBL document CHEMBL1156495 (J Biol Chem, 2007)
